Here are results for 30 compounds from the RepoRT retention time repository.

This data set in a line: RP, Waters CORTECS UPLC C18, 100 × 2.1 mm, 1.6 µm, 40 °C, 0.4 mL/min, estimated dead time 0.55 min; A: water + 0.1% formic acid, pH 3; B: acetonitrile + 0.1% formic acid, pH 3; gradient (min/%B) 0/5 1.12/5 6.41/99.5 10.01/99.5. The conditions noted are these: stereoisomer not certain.
On to `N#CC(CCc1ccc(Cl)cc1)(Cn1cncn1)c1ccccc1` (stereo not given) [Fenbucanozole], for which the LC retention time was 5.11 min.

`CC1(C(=O)Nc2ccc(O)c(Cl)c2Cl)CCCCC1` [Fenhexamid]: the LC retention time is 5 min.

For the compound `CCOC(=O)NCCOc1ccc(Oc2ccccc2)cc1` [Fenoxycarb], the LC retention time was 5.19 min.

Take `CC(Cc1ccc(C(C)(C)C)cc1)CN1CCCCC1` (stereo not given) [Fenpropidine]: the LC retention time was 4.27 min.

As for `Cc1nn(C)c(Oc2ccccc2)c1C=NOCc1ccc(C(=O)OC(C)(C)C)cc1` [Fenpyroximate], the LC retention time was 6.25 min.

`CN(C)C(=O)Nc1ccccc1` [Fenuron]: the LC retention time is 3.14 min.

Turning to `N#CCNC(=O)c1cnccc1C(F)(F)F` [Flonicamid], the LC retention time is 2.88 min.

As to `O=[N+]([O-])c1cc(C(F)(F)F)c(Cl)c([N+](=O)[O-])c1Nc1ncc(C(F)(F)F)cc1Cl` [Fluazinam], the LC retention time is 5.97 min.

Regarding `Cc1cc(C(F)(C(F)(F)F)C(F)(F)F)ccc1NC(=O)c1cccc(I)c1C(=O)NC(C)(C)CS(C)(=O)=O` [Flubendiamide], the LC retention time was 5.35 min.

Regarding `CC(C)N(C(=O)COc1nnc(C(F)(F)F)s1)c1ccc(F)cc1` [Flufenacet], the LC retention time is 5.22 min.

For the compound `O=C(NC(=O)c1c(F)cccc1F)Nc1ccc(Oc2ccc(C(F)(F)F)cc2Cl)cc1F` [Flufenoxuron], the LC retention time was 6.08 min.

`Cc1ccn2nc(S(=O)(=O)Nc3c(F)cccc3F)nc2n1` [Flumetsulam]: the LC retention time was 3.43 min.

Turning to `C#CCN1C(=O)COc2cc(F)c(N3C(=O)C4=C(CCCC4)C3=O)cc21` [Flumioxazin], the LC retention time is 4.77 min.

On to `CN(C)C(=O)Nc1cccc(C(F)(F)F)c1` [Fluometuron], for which the LC retention time is 4.2 min.

Regarding `O=C(NCc1ncc(C(F)(F)F)cc1Cl)c1c(Cl)cccc1Cl` [Fluopicolide], the LC retention time was 5.06 min.

Regarding `CON=C(C1=NOCCO1)c1ccccc1Oc1ncnc(Oc2ccccc2Cl)c1F` [Fluoxastrobin], the LC retention time was 5.22 min.

Regarding `O=c1c2cc(F)ccc2nc(-n2cncn2)n1-c1ccc(Cl)cc1Cl` [Fluquinconazole], the LC retention time is 5.01 min.

In the case of `C[Si](Cn1cncn1)(c1ccc(F)cc1)c1ccc(F)cc1` [Flusilazole], the LC retention time was 5.06 min.

`OC(Cn1cncn1)(c1ccc(F)cc1)c1ccccc1F` (stereo not given) [Flutriafol]: the LC retention time was 4.2 min.

With `O=C(Nc1ccccc1)Nc1ccnc(Cl)c1` [Forchlorfenuron], the LC retention time is 4.19 min.

With `CCOP(=O)(SC(C)CC)N1CCSC1=O` (stereo not given) [Fosthiazate], the LC retention time is 4.22 min.

Take `c1coc(-c2nc3ccccc3[nH]2)c1` [Fuberidazole]: the LC retention time was 2.63 min.

With `COC(=O)C(C)N(C(=O)c1ccco1)c1c(C)cccc1C` (stereo not given) [Furalaxyl], the LC retention time was 4.79 min.

As for `CCCCOC(=O)N(C)SN(C)C(=O)Oc1cccc2c1OC(C)(C)C2` [Furathiocarb], the LC retention time was 6.05 min.

For `Nc1nc2nc[nH]c2c(=O)[nH]1` [GUANINE], the LC retention time was 0.76 min.

Turning to `Nc1nc2c(ncn2C2OC(CO)C(O)C2O)c(=O)[nH]1` (stereo not given) [GUANOSINE], the LC retention time was 0.76 min.

As for `O=C(O)c1cc(O)c(O)c(O)c1` [Gallic acid], the LC retention time was 0.886 min.

For `CC(CCC(=O)NCC(=O)O)C1CCC2C3C(O)CC4CC(O)CCC4(C)C3CC(O)C12C` (stereo not given) [Glycocholic acid hydrate], the LC retention time was 4.08 min.

Turning to `CC(CCC(=O)NCC(=O)O)C1CCC2C3CCC4CC(O)CCC4(C)C3CC(O)C12C` (stereo not given) [Glycodeoxycholic acid], the LC retention time is 4.66 min.

On to `CC(CCC(=O)NCC(=O)O)C1CCC2C3CC(O)C4CC(O)CCC4(C)C3CCC12C` (stereo not given) [Glycohyodeoxycholic acid], for which the LC retention time is 4.08 min.
